Legend:
[1] = tested on: primary mouse astrocytes; assay: Cytoprotective effect on oxidative stress induced by DMNQ (MTT cell viability); assay type: cell-based; settings: for cell viability: pre-treated 6 hours with 1 mM, 2 mM, 5 mM, then DMNQ (30 µM) with compound for 16 hours, MTT, Fig. 8
Description: A 1-day-old mouse brain was removed, the olfactory bulb was removed, and the meninges were peeled off. After collecting the resultant in a 50 mL tube including HBSS (Hank's balanced salt solution) and centrifuging at 250 × g for 1 minute, the supernatant was removed. 2 mL of trypsin/EDTA (0.5 %), 8 mL of HBSS buffer, and 0.2 mL of DNase were mixed and reacted in a 37 °C constant temperature water bath for 30 minutes. After adding 18 mL of the culture medium and 2 mL of trypsin/EDTA thereto and pipetting 10 times, the resultant was filtered using a 40 µm cell strainer. Then, the supernatant was removed after centrifugation at 800 × g for 2 minutes. After adding 5 mL of the culture solution thereto, the number of cells was confirmed using a hemocytometer and the cells were cultured to obtain primary mouse astrocytes.
After inoculating cells (primary astrocytes, 1 × 10^5 cells) per well in a 96-well plate and culturing at 5 % CO2 and 37 °C for 24 hours to obtain a cell monolayer, the composition was diluted with a cell inoculation medium and the diluted composition each at a concentration of 0 mM, 1 mM, 2 mM, and 5 mM was inoculated at 100 µL/well, and then cultured in a 5 % CO2 and 37 °C incubator for 6 hours. […] Then, after removing the culture medium, 0.5 mg/mL of MTT solution was added to each well in an amount of 100 µL and reacted in a 5 % CO2 and 37 °C incubator for 2 hours. After completely removing the MTT solution and drying the culture plate, the formazan crystals formed in the cells were dissolved with DMSO, and the absorbance was measured at 590 nm with an ELISA plate reader to evaluate cell viability and drug efficacy.

[2] = Stability test under harsh condition (qNMR, maleic acid standard); assay type: physicochemical
Description: In order to confirm the stability of the crystalline form of the present invention depending on conditions, a stability test was conducted under harsh conditions.
The magnesium-serinate crystalline form prepared in Example 2 was stored in a solid state at 70 °C and in an aqueous solution having a concentration of 0.5 mg/mL at 25 °C (60.0 % relative humidity) for 21 days, respectively, and then maleic acid was set as a standard substance, and the stability (measurement of content and related materials) was confirmed through qNMR analysis.
For the qNMR analysis method, analysis conditions were established by measuring the spin-lattice relaxation time T1 of the nuclide ^1H of magnesium-serinate on the sample obtained through the preliminary stress test. The T1 value was set at 4.708 seconds, and the measurement waiting time (d1: delay time) and measurement time (at: acquisition time) were set based on this value. The measurement waiting time (d1) was set to 30 seconds, and the measurement time (at) was set to being equal to or greater than the T1 value.
For the ^1H-NMR measurement for qNMR analysis, JEOL's JNM-ECX400I (400 MHz) NMR equipment was used, and spectral width (sw) was set at 6,000 Hz to sufficiently reflect the frequency range from 0 ppm to 10 ppm.

[3] = Evaluation of occurrence of polymorphic transition on storage (PXRD and DSC); assay type: physicochemical; settings: for DSC Endothermic Temperature: (dec.)
Description: In order to confirm whether the polymorphic transition of the magnesium-serinate crystalline form of the present invention occurs over time, PXRD and DSC analyses were performed in the initial state and after 4 weeks to confirm whether or not the polymorphic transition occurred.
Specifically, the crystalline form prepared in Example 2 was added into a polyethylene bag, placed in a stability chamber under conditions of a temperature of 40 °C and a relative humidity of 75 %, and stored for 4 weeks. PXRD and DSC analyses were performed in substantially the same manner as in Experimental Examples 2 and 3.

[4] = Moisture measurement (Karl Fischer method); assay type: physicochemical; settings: 0.5 g of sample
Description: (§1) Moisture and pH evaluations were performed in the same manner as in Experimental Example 7, and the heavy metal test and the content test were performed in the same manner as in Example 1.
(§2) The crystalline form of the present application prepared in Example 1 and the amorphous form of AST-011 (Comparative Example 2) were comparatively evaluated for the following test items by the following methods, and the results are shown in Table 7 below. - Appearance evaluation: Visual observation - Moisture measurement: According to the moisture measurement method (Karl Fischer method) of the general test method of the 12th edition of the Korean Pharmacopoeia, measured by adding 0.5 g of the sample into a moisture meter (Mettler Toledo, V10-S, Switzerland). - Infrared spectrum measurement method (IR): Measurement was made with FT-IR equipment (PerkinElmer, Spectrum 2, USA) according to the ATR measurement method of the general test method of the 12th revision of the Korean Pharmacopoeia. - pH measurement: 0.5 g of the sample was added into a 10 mL volumetric flask, and water was added to a final volume of 10 mL, and measurement was made with a pH meter (Mettler Toledo, FP-20 Switzerland). - XRD and DSC analyses: The analyses were performed in the same way as in Experimental Examples 2 and 3.

[5] = pH measurement of aqueous sample; assay type: physicochemical; settings: 0.5 g of sample in water, final volume 10 mL
Description: as §1, §2

[6] = Appearance evaluation on storage (visual observation); assay type: physicochemical; settings: storage for 3 months under the same conditions as AST-011
Source text: as §2, with “3. […]” for “3.”

[7] = 25°C, Aqueous solution state (0.5 mg/mL, 60.0 % relative humidity), initial state
[8] = 70°C, Solid state, initial state
[9] = initial vs after 4 weeks at 40 °C, relative humidity 75 %

Row | Structure (SMILES) | cell viability [1] | Purity of magnesium-serinate (%) ([2]; 25°C, Aqueous solution state (0.5 mg/mL, 60.0 % relative humidity), 9 days) | Concentration of Total Related Materials (%) ([2]; 25°C, Aqueous solution state (0.5 mg/mL, 60.0 % relative humidity), 21 days) | Concentration of Total Related Materials (%) [2, 7] [%] | Purity of magnesium-serinate (%) [2, 7] [%] | Purity of magnesium-serinate (%) ([2]; 70°C, Solid state, 9 days) | Concentration of Total Related Materials (%) ([2]; 70°C, Solid state, 21 days) | Concentration of Total Related Materials (%) [2, 8] [%] | Purity of magnesium-serinate (%) [2, 8] [%] | DSC Endothermic Temperature ([3]; after 4 weeks at 40 °C and relative humidity of 75 %, polyethylene bag) | Result of Comparative Analysis [3, 9] | Result of PXRD Analysis [3, 9] | DSC Endothermic Temperature ([3]; initial) | Moisture Content [4] [%] | Moisture Content ([4]; listed as Example 2) [%] | pH [5] | Appearance (stability) [6] | cytotoxicity at 30 µM ([1]; Mus musculus, Astrocyte, 16 h, read-out: cells killed by oxidative stress) [%]
1 | N[C@@H](CO)C(=O)O [Comparative Example 1, L-serine] | excellent | – | – | – | – | – | – | – | – | – | – | – | – | – | – | – | – | –
2 | N[C@@H](CO)C(=O)[O-].N[C@@H](CO)C(=O)[O-].[Mg+2] [Crystalline Form of Present Application, magnesium-di-(2S)-2-amino-3-hydroxypropanoate] | excellent | 100.07 | 0.00 | 0.00 | 100.12 | 100.15 | 0.00 | 0.00 | 100.12 | 282.5 °C (dec.) | no occurrence of polymorphic transition | same crystalline form | 283.0 °C (dec.) | 0.2 | 0.1 | 10.3 | Fig. 7(b) light gray or white powder (stability: no change after 3 months) | –
3 | COC1=C(OC)C(=O)c2ccccc2C1=O [DMNQ, 1,4-naphthoquinone] | – | – | – | – | – | – | – | – | – | – | – | – | – | – | – | – | – | ~50
